Patent US8217032B2, “Selective estrogen receptor modulators for the treatment of vasomotor symptoms” (Eli Lilly and Company, priority 2004, dated 2012)

Legend:
[1] = tested on: ovariectomized Sprague-Dawley rats; assay: Morphine withdrawal, rat hot flash model; format: in vivo; details: LRL data
Excerpt: Morphine withdrawal, rat hot flash model: Simpkins et al. (1983) first published morphine withdrawal in the rat as a putative model for hot flashes, based on observations highlighting the similarity of symptoms of gonadal steroid withdrawal to those of opioid withdrawal. Although less severe, the signs and symptoms associated with clinical hot flashes, or estrogen deficiency, in the rat parallel those produced by naloxone-precipitated withdrawal in morphine dependent rats, including: 1) an increase in tail skin temperature, 2) a surge in luteinizing hormone and 3) an increase in heart rate. Each of these responses are associated with an increase in sympathetic outflow, which is a current mechanistic hypothesis for hot flashes. […] A key feature of animal models, is that they mimic the treatment efficacy observed with the human disease. The morphine withdrawal hot flash model, either in its originally described form, or with the modifications described herein, is responsive to agents typically used in the treatment of human hot flashes. This includes various forms of estrogen (Simpkins et al., 1983; LRL data), clonidine (LRL data), tibolone (LRL data), and medroxyprogesterone (LRL data). Furthermore, the model is sensitive to agents known to be associated with the induction of hot flashes in postmenopausal women.
A modification of the original procedure of Simpkins et al. (1983) is used which employs ovariectomized Sprague-Dawley rats. […]
On day 21 post-ovariectomy, animals are given […] (80 mg/kg; IM) 2-hours after final administration of the test compound. […] Temperature monitoring is initiated 30 minutes after administration of […] and is recorded every 15 seconds for a 1-hr period. […] A sharp rise in tail skin temperature typically occurs within 5 minutes post-naloxone injection, and two quantitative endpoints are made: 1) tail skin temperature at 15 min post-naloxone, and 2) area under the temperature response curve for the 45-min post-naloxone measurement period. […] Uteri are also removed at this time, and wet weight recorded.

[2] = Phase III clinical studies; cited from earlier work

Compound | responsiveness of the morphine withdrawal hot flash model to agents typically used in the treatment of human hot flashes [1] | incidence of hot flash compared to placebo [2]
Clc1cccc(Cl)c1N=C1NCCN1 [clonidine] | responsive | –
O=C(c1ccc(OCCN2CCCCC2)cc1)c1c(-c2ccc(O)cc2)sc2cc(O)ccc12 [raloxifene] | – | slight increased incidence of hot flash
C#C[C@]1(O)CC[C@H]2[C@@H]3[C@H](C)CC4=C(CCC(=O)C4)[C@H]3CC[C@@]21C [tibolone] | responsive | –
medroxyprogesterone | responsive | –
